The target of this experiment is T1, human TRPM8 (Homo sapiens, UniProt Q7Z2W7).
T1 construct: expressed in transfected cells; host or cells: Chinese hamster ovary (CHO) cells, T-REx tetracycline-inducible system, co-transfected with aequorin
Description: Luminescence readout assay for measuring intracellular calcium, icilin activation. Format: cell-based. The following applies: CHO cells expressing human TRPM8, aequorin luminescence, 1 μM icilin activation; read-out: hTRPM8 IC50. The method, boiled down: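 The read-out was luminescence reporting intracellular calcium, recorded by a CCD-based luminometer. Compounds were preincubated for 2.5 min before agonist challenge with 1 μM icilin. Human TRPM8 was expressed in a stable T-REx CHO line, induced with 0.5 μg/mL tetracycline the day before.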

T1 sequence (Q7Z2W7 whole entry): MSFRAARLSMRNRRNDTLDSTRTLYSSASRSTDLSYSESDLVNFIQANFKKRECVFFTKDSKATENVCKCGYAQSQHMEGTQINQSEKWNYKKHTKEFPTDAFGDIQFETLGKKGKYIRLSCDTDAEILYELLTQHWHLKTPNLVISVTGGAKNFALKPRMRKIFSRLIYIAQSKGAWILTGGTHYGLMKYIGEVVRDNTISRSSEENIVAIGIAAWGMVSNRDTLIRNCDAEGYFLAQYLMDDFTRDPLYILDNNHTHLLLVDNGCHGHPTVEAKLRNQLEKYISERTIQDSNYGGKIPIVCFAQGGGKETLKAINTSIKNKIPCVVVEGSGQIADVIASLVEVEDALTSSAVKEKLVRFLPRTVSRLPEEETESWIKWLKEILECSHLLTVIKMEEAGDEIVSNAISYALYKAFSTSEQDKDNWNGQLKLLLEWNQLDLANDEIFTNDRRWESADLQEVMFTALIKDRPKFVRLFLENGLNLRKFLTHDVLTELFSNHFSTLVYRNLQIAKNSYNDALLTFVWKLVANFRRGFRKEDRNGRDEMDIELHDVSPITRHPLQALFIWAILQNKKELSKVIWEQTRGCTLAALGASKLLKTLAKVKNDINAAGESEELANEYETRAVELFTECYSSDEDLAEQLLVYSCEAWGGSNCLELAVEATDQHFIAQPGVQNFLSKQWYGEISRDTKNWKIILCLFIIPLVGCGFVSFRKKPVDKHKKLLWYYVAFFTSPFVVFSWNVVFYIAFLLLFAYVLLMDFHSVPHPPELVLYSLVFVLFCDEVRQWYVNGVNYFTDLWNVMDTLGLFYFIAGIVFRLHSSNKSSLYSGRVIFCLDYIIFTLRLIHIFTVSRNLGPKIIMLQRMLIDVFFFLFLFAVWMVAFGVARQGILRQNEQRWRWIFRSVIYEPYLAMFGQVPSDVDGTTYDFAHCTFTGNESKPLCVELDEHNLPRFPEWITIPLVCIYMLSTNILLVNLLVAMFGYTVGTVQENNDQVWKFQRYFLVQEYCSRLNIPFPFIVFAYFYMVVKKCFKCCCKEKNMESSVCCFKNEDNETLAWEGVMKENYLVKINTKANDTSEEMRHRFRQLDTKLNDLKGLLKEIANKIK

Consider `CC(=O)Nc1ccc(C(=O)N[C@@H](c2ccc(C(F)(F)F)cc2)c2ncccc2C(F)(F)F)cn1` [Example 148, (S)-6-acetamido-N-((4-(trifluoromethyl)phenyl)(3-(trifluoromethyl)pyridin-2-yl)methyl)nicotinamide 2,2,2-trifluoroacetate], for which the IC50 was determined as 0.257 µM.
As to `O=C1CCc2cc(C(=O)N[C@@H](c3ccc(C(F)(F)F)cc3)c3ncccc3F)ccc2N1` [Example 318, (S)-N-((3-fluoropyridin-2-yl)(4-(trifluoromethyl)phenyl)methyl)-2-oxo-1,2,3,4-tetrahydroquinoline-6-carboxamide], the IC50 came out at 0.0297 µM.
For `O=C(N[C@@H](c1ccc(F)c(F)c1)c1ncccc1F)c1ccc(=O)[nH]c1` [Example 331, (S)-N-((3,4-difluorophenyl)(3-fluoropyridin-2-yl)methyl)-6-oxo-1,6-dihydropyridine-3-carboxamide] the value was 0.965 µM; for `Cc1cc(C)n2nc(C(=O)N[C@@H](c3ccc(C(F)(F)F)cc3)c3ncccc3C(F)(F)F)nc2n1` [Example 151, (S)-5,7-dimethyl-N-((4-(trifluoromethyl)phenyl)(3-(trifluoromethyl)pyridin-2-yl)methyl)-[1,2,4]triazolo[1,5-a]pyrimidine-2-carboxamide 2,2,2-trifluoroacetate], 0.395 µM.
For `O=C(N[C@@H](c1ccc(C(F)(F)F)cc1)c1ncccc1C(F)(F)F)c1ccn2nnnc2c1` [Example 312, (S)-N-((4-(trifluoromethyl)phenyl)(3-(trifluoromethyl)pyridin-2-yl)methyl)tetrazolo[1,5-a]pyridine-7-carboxamide] the value was 0.0252 µM; for `O=C(N[C@@H](c1ccc(C(F)(F)F)cc1)c1ncccc1C(F)(F)F)c1ccc(Cl)nc1` [Example 135, (S)-6-chloro-N-((4-(trifluoromethyl)phenyl)(3-(trifluoromethyl)pyridin-2-yl)methyl)nicotinamide], 0.0194 µM.
For `COC(C)(C)C(=O)N[C@@H](c1ccc(C(F)(F)F)cc1)c1ncccc1C(F)(F)F` [Example 240, (S)-2-methoxy-2-methyl-N-((4-(trifluoromethyl)phenyl)(3-(trifluoromethyl)pyridin-2-yl)methyl)propanamide], the IC50 was found to be 0.081 µM.
Turning to `O=C(N[C@@H](c1ccc(C(F)(F)F)cc1)c1ncccc1F)c1ccc(-c2nc(=O)o[nH]2)cc1` [Example 315, (S)-N-((3-fluoropyridin-2-yl)(4-(trifluoromethyl)phenyl)methyl)-4-(5-oxo-2,5-dihydro-1,2,4-oxadiazol-3-yl)benzamide], the IC50 amounted to 0.0363 µM.
As to `O=C(N[C@@H](c1cnc2c(F)cccc2c1)c1ncccc1C(F)(F)F)c1ccc2cccnc2c1` [Example 20, (S)-N-((8-fluoroquinolin-3-yl)(3-(trifluoromethyl)pyridin-2-yl)methyl)quinoline-7-carboxamide], the IC50 is 0.187 µM.
Turning to `Cc1ccc([C@H](NC(=O)c2ccc(=O)[nH]c2)c2ncccc2F)cc1F` [Example 334, (S)-N-((3-fluoro-4-methylphenyl)(3-fluoropyridin-2-yl)methyl)-6-oxo-1,6-dihydropyridine-3-carboxamide], the IC50 was 0.103 µM.
Under `O=C(Cc1ccccc1OC(F)(F)F)N[C@@H](c1ccc(C(F)(F)F)cc1)c1ncccc1C(F)(F)F` [Example 164] stands 0.294 µM.
Turning to `O=C(N[C@@H](c1ccc(C(F)(F)F)cc1)c1ncccc1C(F)(F)F)c1ccc(F)cc1` [Example 183, (S)-4-fluoro-N-((4-(trifluoromethyl)phenyl)(3-(trifluoromethyl)pyridin-2-yl)methyl)benzamide], the IC50 worked out at 0.0396 µM.
For `O=C(N[C@@H](c1ccc(Cl)c(Cl)c1)c1ncccc1F)c1ccc(=O)[nH]c1` [Example 250, (S)-N-((3,4-dichlorophenyl)(3-fluoropyridin-2-yl)methyl)-6-oxo-1,6-dihydropyridine-3-carboxamide 2,2,2-trifluoroacetate] the value was 0.0192 µM; for `O=C(N[C@@H](c1ccc(C(F)(F)F)cc1)c1ncccc1C(F)(F)F)c1cccc(OC(F)(F)F)c1` [Example 219, (S)-3-(trifluoromethoxy)-N-((4-(trifluoromethyl)phenyl)(3-(trifluoromethyl)pyridin-2-yl)methyl)benzamide], 0.137 µM.
Regarding `Cc1cc([C@H](NC(=O)c2ccc(=O)[nH]c2)c2ncccc2F)cc(C(F)(F)F)c1` [Example 333, (S)-N-((3-fluoropyridin-2-yl)(3-methyl-5-(trifluoromethyl)phenyl)methyl)-6-oxo-l,6-dihydropyridine-3-carboxamide], the IC50 was 0.658 µM.
As to `O=C(N[C@@H](c1ccc(C(F)(F)F)cc1)c1ncccc1C(F)(F)F)c1ccc2c(c1)C(=O)NC2=O` [Example 94, (S)-1,3-dioxo-N-((4-(trifluoromethyl)phenyl)(3-(trifluoromethyl)pyridin-2-yl)methyl)isoindoline-5-carboxamide], the IC50 worked out at 0.0414 µM.
For `COc1ncccc1C(=O)N[C@@H](c1ccc(C(F)(F)F)cc1)c1ncccc1C(F)(F)F` [Example 29] the value was 0.0324 µM.
Under `Cc1cccnc1[C@@H](NC(=O)c1ccc(=O)n(C)c1)c1ccc(OC(F)(F)F)cc1` [Example 360, (S)-1-methyl-N-((3-methylpyridin-2-yl)(4-(trifluoromethoxy)phenyl)methyl)-6-oxo-1,6-dihydropyridine-3-carboxamide] stands 0.02 µM; under `O=C1CNc2cc(C(=O)N[C@@H](c3ccc(C(F)(F)F)cc3)c3ncccc3F)ccc2O1` [Example 75, (S)-N-((3-fluoropyridin-2-yl)(4-(trifluoromethyl)phenyl)methyl)-2-oxo-3,4-dihydro-2H-benzo[b][1,4]oxazine-6-carboxamide], 0.0391 µM; under `O=C(N[C@@H](c1ccc(C(F)(F)F)cc1)c1ncccc1C(F)(F)F)c1ccc2cn[nH]c2c1` [Example 175, (S)-N-((4-(trifluoromethyl)phenyl)(3-(trifluoromethyl)pyridin-2-yl)methyl)-1H-indazole-6-carboxamide], 0.0303 µM.
Turning to `O=C(N[C@@H](c1ccc(OC(F)(F)F)c(F)c1)c1ncccc1F)c1ccc2oc(=O)[nH]c2n1` [Example 425, (S)—N-((3-Fluoro-4-(trifluoromethoxy)phenyl)(3-fluoropyridin-2-yl)methyl)-2-oxo-2,3-dihydrooxazolo[4,5-b]pyridine-5-carboxamide], the IC50 is 0.0105 µM.
For the compound `O=C1CCCC(C(=O)N[C@@H](c2ccc(C(F)(F)F)cc2)c2ncccc2C(F)(F)F)C1` (stereo partly drawn) [Example 223, 3-oxo-N-((S)-(4-(trifluoromethyl)phenyl)(3-(trifluoromethyl)pyridin-2-yl)methyl)cyclohexanecarboxamide], the IC50 amounted to 0.599 µM.
Turning to `COc1ccc(C(NC(=O)c2ccc(=O)[nH]c2)c2ccc(OC(F)(F)F)c(F)c2)nc1` (stereo not drawn) [Example 421], the IC50 is 0.611 µM.
With `CC(C)(O)c1ccc(C(=O)N[C@@H](c2ccc(C(F)(F)F)cc2)c2ncccc2C(F)(F)F)cc1` [Example 121, (S)-4-(2-hydroxypropan-2-yl)-N-((4-(trifluoromethyl)phenyl)(3-(trifluoromethyl)pyridin-2-yl)methyl)benzamide], the IC50 came out at 0.247 µM.
As for `Cc1ccc(C(=O)N[C@@H](c2ccc(C(F)(F)F)cc2)c2ncccc2F)cn1` [Example 52, (S)-N-((3-fluoropyridin-2-yl)(4-(trifluoromethyl)phenyl)methyl)-6-methylnicotinamide], the 50% inhibitory concentration (IC50) worked out at 0.0401 µM.
Under `O=C(N[C@@H](c1ccc(C(F)(F)F)cc1)c1ncccc1C(F)(F)F)c1cccnn1` [Example 31, (S)-N-((4-(trifluoromethyl)phenyl)(3-(trifluoromethyl)pyridin-2-yl)methyl)pyridazine-3-carboxamide] stands 0.162 µM.
For the compound `N#Cc1ccc(C(=O)N[C@@H](c2ccc(C(F)(F)F)cc2)c2ncccc2F)cc1` (stereo in doubt) [Example 200, 4-cyano-N-((3-fluoropyridin-2-yl)(4-(trifluoromethyl)phenyl)methyl)benzamide], the IC50 amounted to 0.0493 µM.
With `Cc1cccnc1[C@@H](NC(=O)c1ccc(=O)[nH]c1)c1ccc(OC(F)(F)F)c(F)c1` [Example 347, (S)-N-((3-fluoro-4-(trifluoromethoxy)phenyl)(3-methylpyridin-2-yl)methyl)-6-oxo-1,6-dihydropyridine-3-carboxamide], the IC50 turned out to be 0.01 µM.
For `O=C(N[C@@H](c1ccc(C(F)(F)F)cc1)c1ncccc1F)c1ccc2nccc(Cl)c2c1` [Example 113, (S)-4-chloro-N-((3-fluoropyridin-2-yl)(4-(trifluoromethyl)phenyl)methyl)quinoline-6-carboxamide 2,2,2-trifluoroacetate], the IC50 was 0.0311 µM.
`CCCN1C(=O)c2ccc(C(=O)N[C@@H](c3ccc(C(F)(F)F)cc3)c3ncccc3C(F)(F)F)cc2C1=O` [Example 269, (S)-1,3-Dioxo-2-propyl-N-((4-(trifluoromethyl)phenyl)(3-(trifluoromethyl)pyridin-2-yl)methyl)isoindoline-5-carboxamide]: the IC50 was determined as 0.136 µM.
As for `COc1ccc(C(=O)N[C@@H](c2ccc(OC(F)(F)F)c(F)c2)c2ncccc2F)[nH]c1=O` [Example 404, (S)-N-((3-fluoro-4-(trifluoromethoxy)phenyl)(3-fluoropyridin-2-yl)methyl)-5-methoxy-6-oxo-1,6-dihydropyridine-2-carboxamide], the IC50 was determined as 3.55 µM.
Turning to `O=C(N[C@@H](c1ccc(C(F)(F)F)cc1)c1ncccc1F)c1ccn2nnnc2c1` [Example 308, (S)-N-((3-fluoropyridin-2-yl)(4-(trifluoromethyl)phenyl)methyl)tetrazolo[1,5-a]pyridine-7-carboxamide], the IC50 was determined as 0.0269 µM.
As for `O=C(N[C@@H](c1ccc(OC(F)(F)F)cc1)c1ncccc1F)c1ccc(=O)[nH]n1` [Example 350, (S)-N-((3-fluoropyridin-2-yl)(4-(trifluoromethoxy)phenyl)methyl)-6-oxo-1,6-dihydropyridazine-3-carboxamide], the IC50 is 0.0227 µM.

These data come from patent US8710043B2, “TRPM8 antagonists and their use in treatments” (Amgen Inc., priority 2011, dated 2014).
